From patent publication US20230077362A1 (CORTEVA AGRISCIENCE LLC, priority 2019, published 2023)

Tests used:
[1] = system: Beet Armyworm (Spodoptera exigua) ("BAW"), second instar larvae; assay: Bioassay on beet armyworm (BAW), 128-well diet tray assay; format: in vivo; conditions: Spodoptera exigua, read-out: BAW (Biological Results, rating)
Procedure, shortened: (§1)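 Sealed trays, 25° C., 14:10 light:dark, 5–7 d. Per-well % mortality recorded, mean of eight wells reported.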

[2] = system: Cabbage Looper (Trichoplusia ni) ("CL"), second instar larvae; assay: Bioassay on cabbage looper (CL), 128-well diet tray assay; format: in vivo; conditions: Trichoplusia ni, read-out: CL (Biological Results, rating)
Procedure, shortened: as §1

SMILES | pest or weed control at 50 µg/cm2 [1] | pest or weed control at 50 µg/cm2 [2]
COC(C)c1ccc(C)cc1N1C(=O)CS/C1=N\C(=O)Nc1ccc(-c2ncn(-c3ccc(OC(F)(F)F)cn3)n2)cc1C (stereo not drawn) [Compound J240, (Z)-1-(3-(2-(1-Methoxyethyl)-5-methylphenyl)-4-oxothiazolidin-2-ylidene)-3-(2-methyl-4-(1-(5-(trifluoromethoxy)pyridin-2-yl)-1H-1,2,4-triazol-3-yl)phenyl)urea] | 50 to 100% | 50 to 100%
Cc1ccc(COCC(F)(F)F)c(N2C(=O)CS/C2=N\C(=O)Nc2ccc(-c3ncn(-c4ccc(OC(F)(F)F)cn4)n3)cc2C)c1 [Compound J241, (Z)-1-(3-(5-Methyl-2-((2,2,2-trifluoroethoxy)methyl)phenyl)-4-oxothiazolidin-2-ylidene)-3-(2-methyl-4-(1-(5-(trifluoromethoxy)pyridin-2-yl)-1H-1,2,4-triazol-3-yl)phenyl)urea] | 50 to 100% | 50 to 100%
CC(C)c1ccc(N(C)C)cc1N1C(=O)CS/C1=N\C(=O)Nc1ccc(-c2ncn(-c3ccc(OC(F)(F)F)cc3)n2)cc1C#N [Compound J242, (Z)-1-(2-Cyano-4-(1-(4-(trifluoromethoxy)phenyl)-1H-1,2,4-triazol-3-yl)phenyl)-3-(3-(5-(dimethylamino)-2-isopropylphenyl)-4-oxothiazolidin-2-ylidene)urea] | 50 to 100% | 50 to 100%
Cc1ccc(OCCC(F)(F)F)c(N2C(=O)CS/C2=N\C(=O)Nc2ccc(-c3ncn(-c4ccc(OC(F)(F)F)cc4)n3)cc2C#N)c1 [Compound J243, (Z)-1-(2-Cyano-4-(1-(4-(trifluoromethoxy)phenyl)-1H-1,2,4-triazol-3-yl)phenyl)-3-(3-(5-methyl-2-(3,3,3-trifluoropropoxy)phenyl)-4-oxothiazolidin-2-ylidene)urea] | 50 to 100% | 50 to 100%
Cc1ccc(C(F)(F)F)c(N2C(=O)CS/C2=N\C(=O)Nc2ccc(-c3ncn(-c4ccc(OC(F)(F)F)cc4)n3)cc2C#N)c1 [Compound J244, (Z)-1-(2-Cyano-4-(1-(4-(trifluoromethoxy)phenyl)-1H-1,2,4-triazol-3-yl)phenyl)-3-(3-(5-methyl-2-(trifluoromethyl)phenyl)-4-oxothiazolidin-2-ylidene)urea] | 50 to 100% | 50 to 100%
Cc1ccc(COCC(F)(F)F)c(N2C(=O)CS/C2=N\C(=O)Nc2ccc(-c3ncn(-c4ccc(OC(F)(F)F)cc4)n3)cc2C#N)c1 [Compound J245, (Z)-1-(2-Cyano-4-(1-(4-(trifluoromethoxy)phenyl)-1H-1,2,4-triazol-3-yl)phenyl)-3-(3-(5-methyl-2-((2,2,2-trifluoroethoxy)methyl)phenyl)-4-oxothiazolidin-2-ylidene)urea] | 50 to 100% | 50 to 100%
COc1ccc(C(C)C)c(N2C(=O)CS/C2=N\C(=O)Nc2ccc(-c3ncn(-c4ccc(OC(F)(F)F)cc4)n3)cc2C#N)c1 [Compound J246, (Z)-1-(2-Cyano-4-(1-(4-(trifluoromethoxy)phenyl)-1H-1,2,4-triazol-3-yl)phenyl)-3-(3-(2-isopropyl-5-methoxyphenyl)-4-oxothiazolidin-2-ylidene)urea] | 50 to 100% | 50 to 100%
CCCc1ccc(N(C)C)cc1N1C(=O)CS/C1=N\C(=O)Nc1ccc(-c2ncn(-c3ccc(OC(F)(F)F)cc3)n2)cc1C#N [Compound J247, (Z)-1-(2-Cyano-4-(1-(4-(trifluoromethoxy)phenyl)-1H-1,2,4-triazol-3-yl)phenyl)-3-(3-(5-(dimethylamino)-2-propylphenyl)-4-oxothiazolidin-2-ylidene)urea] | 50 to 100% | 50 to 100%
CCCc1ccc(C)cc1N1C(=O)CS/C1=N\C(=O)Nc1ccc(-c2ncn(-c3ccc(OC(F)(F)F)cc3)n2)cc1C#N [Compound J248, (Z)-1-(2-Cyano-4-(1-(4-(trifluoromethoxy)phenyl)-1H-1,2,4-triazol-3-yl)phenyl)-3-(3-(5-methyl-2-propylphenyl)-4-oxothiazolidin-2-ylidene)urea] | 50 to 100% | 50 to 100%
Cc1ccc(COCC(F)(F)F)c(N2C(=O)CS/C2=N\C(=O)Nc2ccc(-c3ncn(-c4ccc(OC(F)(F)F)cn4)n3)cc2Cl)c1 [Compound J249, (Z)-1-(2-Chloro-4-(1-(5-(trifluoromethoxy)pyridin-2-yl)-1H-1,2,4-triazol-3-yl)phenyl)-3-(3-(5-methyl-2-((2,2,2-trifluoroethoxy)methyl)phenyl)-4-oxothiazolidin-2-ylidene)urea] | 50 to 100% | 50 to 100%
COC(C)c1ccc(C)cc1N1C(=O)CS/C1=N\C(=O)Nc1ccc(-c2ncn(-c3ccc(OC(F)(F)F)cn3)n2)cc1Cl (stereo not drawn) [Compound J250, (Z)-1-(2-Chloro-4-(1-(5-(trifluoromethoxy)pyridin-2-yl)-1H-1,2,4-triazol-3-yl)phenyl)-3-(3-(2-(1-methoxyethyl)-5-methylphenyl)-4-oxothiazolidin-2-ylidene)urea] | 50 to 100% | 50 to 100%
Cc1cc(-c2ncn(-c3ccc(OC(F)(F)F)cn3)n2)ccc1NC(=O)/N=C1\SCC(=O)N1c1cc(N(C)C)ccc1C(C)C [Compound J251, (Z)-1-(3-(5-(Dimethylamino)-2-isopropylphenyl)-4-oxothiazolidin-2-ylidene)-3-(2-methyl-4-(1-(5-(trifluoromethoxy)pyridin-2-yl)-1H-1,2,4-triazol-3-yl)phenyl)urea] | 50 to 100% | 50 to 100%
COc1ccc(C(C)C)c(N2C(=O)CS/C2=N\C(=O)Nc2ccc(-c3ncn(-c4ccc(OC(F)(F)F)cn4)n3)cc2C)c1 [Compound J252, (Z)-1-(3-(2-Isopropyl-5-methoxyphenyl)-4-oxothiazolidin-2-ylidene)-3-(2-methyl-4-(1-(5-(trifluoromethoxy)pyridin-2-yl)-1H-1,2,4-triazol-3-yl)phenyl)urea] | 50 to 100% | 50 to 100%
CC(C)c1ccc(N(C)C)cc1N1C(=O)CS/C1=N\C(=O)Nc1ccc(-c2ncn(-c3ccc(OC(F)(F)F)cn3)n2)cc1Cl [Compound J253, (Z)-1-(2-Chloro-4-(1-(5-(trifluoromethoxy)pyridin-2-yl)-1H-1,2,4-triazol-3-yl)phenyl)-3-(3-(5-(dimethylamino)-2-isopropylphenyl)-4-oxothiazolidin-2-ylidene)urea] | 50 to 100% | 50 to 100%
CCCc1ccc(N(C)C)cc1N1C(=O)CS/C1=N\C(=O)Nc1ccc(-c2ncn(-c3ccc(OC(F)(F)F)cn3)n2)cc1C [Compound J254, (Z)-1-(3-(5-(Dimethylamino)-2-propylphenyl)-4-oxothiazolidin-2-ylidene)-3-(2-methyl-4-(1-(5-(trifluoromethoxy)pyridin-2-yl)-1H-1,2,4-triazol-3-yl)phenyl)urea] | 50 to 100% | 50 to 100%
Cc1ccc(OCCC(F)(F)F)c(N2C(=O)CS/C2=N\C(=O)Nc2ccc(-c3ncn(-c4ccc(OC(F)(F)F)cn4)n3)cc2C)c1 [Compound J255, (Z)-1-(3-(5-Methyl-2-(3,3,3-trifluoropropoxy)phenyl)-4-oxothiazolidin-2-ylidene)-3-(2-methyl-4-(1-(5-(trifluoromethoxy)pyridin-2-yl)-1H-1,2,4-triazol-3-yl)phenyl)urea] | 50 to 100% | 50 to 100%
Cc1ccc(OCCC(F)(F)F)c(N2C(=O)CS/C2=N\C(=O)Nc2ccc(-c3ncn(-c4ccc(OC(F)(F)F)cn4)n3)cc2F)c1 [Compound J257, (Z)-1-(2-Fluoro-4-(1-(5-(trifluoromethoxy)pyridin-2-yl)-1H-1,2,4-triazol-3-yl)phenyl)-3-(3-(5-methyl-2-(3,3,3-trifluoropropoxy)phenyl)-4-oxothiazolidin-2-ylidene)urea] | 50 to 100% | 50 to 100%
CCCc1ccc(N(C)C)cc1N1C(=O)CS/C1=N\C(=O)Nc1ccc(-c2ncn(-c3ccc(OC(F)(F)F)cn3)n2)cc1F [Compound J258, (Z)-1-(3-(5-(Dimethylamino)-2-propylphenyl)-4-oxothiazolidin-2-ylidene)-3-(2-fluoro-4-(1-(5-(trifluoromethoxy)pyridin-2-yl)-1H-1,2,4-triazol-3-yl)phenyl)urea] | 50 to 100% | 50 to 100%
Cc1ccc(C(C)C)c(N2C(=O)CS/C2=N\C(=O)Nc2ccc(-c3ncn(-c4ccc(OC(F)(F)F)cn4)n3)cc2C#N)c1 [Compound J259, (Z)-1-(2-Cyano-4-(1-(5-(trifluoromethoxy)pyridin-2-yl)-1H-1,2,4-triazol-3-yl)phenyl)-3-(3-(2-isopropyl-5-methylphenyl)-4-oxothiazolidin-2-ylidene)urea] | 50 to 100% | 50 to 100%
Cc1ccc(C(C)C)c(N2C(=O)CS/C2=N\C(=O)Nc2ccc(-c3ncn(-c4ccc(OC(F)(F)F)cn4)n3)cc2C(F)(F)F)c1 [Compound J260, (Z)-1-(3-(2-Isopropyl-5-methylphenyl)-4-oxothiazolidin-2-ylidene)-3-(4-(1-(5-(trifluoromethoxy)pyridin-2-yl)-1H-1,2,4-triazol-3-yl)-2-(trifluoromethyl)phenyl)urea] | 50 to 100% | 50 to 100%
CC(C)c1cc(F)c(N(C)C)cc1N1C(=O)CS/C1=N\C(=O)Nc1ccc(-c2ncn(-c3ccc(OC(F)(F)F)cn3)n2)cc1F [Compound J261, (Z)-1-(3-(5-(Dimethylamino)-4-fluoro-2-isopropylphenyl)-4-oxothiazolidin-2-ylidene)-3-(2-fluoro-4-(1-(5-(trifluoromethoxy)pyridin-2-yl)-1H-1,2,4-triazol-3-yl)phenyl)urea] | 50 to 100% | 50 to 100%
